Reference: patent publication US10770169B2, “Method of providing a treatment to a subject based on a dynamic pathway map” (THE REGENTS OF THE UNIVERSITY OF CALIFORNIA, priority 2010, dated 2020)
Read-outs that look alike come from different tables or passages of the source.

System: panel of 55 breast cancer cell lines
Assay: Cell growth inhibition assay (Cell Titer Glo, 72 h, 9 doses; GI50, TGI, LC50)
Type: cell-based, human
Settings: Homo sapiens, read-out: GI50 (converted)

COc1cccc2c1C(=O)c1c(O)c3c(c(O)c1C2=O)C[C@@](O)(C(=O)CO)C[C@@H]3O[C@H]1C[C@H](N)[C@H](O)[C@H](C)O1 [Doxorubicin]
GI50 (600MPE cell line, censored GI50 values): 0.269 µM | GI50 (AU565, AU565 cell line, censored GI50 values): 0.0933 µM | GI50 (AU565, cell line AU565): 0.0933 µM | GI50 (BT-474, BT474 cell line, censored GI50 values): 0.309 µM | GI50 (BT-474, cell line BT474): 0.309 µM | GI50 (BT-483, BT483 cell line, censored GI50 values): 0.151 µM | GI50 (BT-483, cell line BT483): 0.151 µM | GI50 (CAMA-1, CAMA1 cell line, censored GI50 values): 0.263 µM | GI50 (CAMA-1, cell line CAMA1): 0.263 µM | GI50 (HCC38, HCC38 cell line, censored GI50 values): 0.0724 µM | GI50 (HCC38, cell line HCC38): 0.0724 µM | GI50 (HCC70, HCC70 cell line, censored GI50 values): 2.29 µM | GI50 (HCC70, cell line HCC70): 2.29 µM | GI50 (HCC202, HCC202 cell line, censored GI50 values): 0.525 µM | GI50 (HCC202, cell line HCC202): 0.525 µM | GI50 (HCC1143, HCC1143 cell line, censored GI50 values): 0.525 µM | GI50 (HCC1143, cell line HCC1143): 0.525 µM | GI50 (HCC1187, HCC1187 cell line, censored GI50 values): 0.132 µM | GI50 (HCC1187, cell line HCC1187): 0.132 µM | GI50 (HCC1395, HCC1395 cell line, censored GI50 values): 0.251 µM | GI50 (HCC1395, cell line HCC1395): 0.251 µM | GI50 (HCC1419, HCC1419 cell line, censored GI50 values): 0.513 µM | GI50 (HCC1419, cell line HCC1419): 0.513 µM | GI50 (HCC1428, HCC1428 cell line, censored GI50 values): 1.2 µM | GI50 (HCC1428, cell line HCC1428): 1.2 µM | GI50 (HCC1500, HCC1500 cell line, censored GI50 values): 0.2 µM | GI50 (HCC1500, cell line HCC1500): 0.2 µM | GI50 (HCC1806, HCC1806 cell line, censored GI50 values): 0.162 µM | GI50 (HCC1806, cell line HCC1806): 0.162 µM | GI50 (HCC1954, HCC1954 cell line, censored GI50 values): 0.186 µM | GI50 (HCC1954, cell line HCC1954): 0.186 µM | GI50 (HCC2185 cell line, censored GI50 values): 0.0692 µM | GI50 (HCC3153 cell line, censored GI50 values): 0.355 µM | GI50 (LY2 cell line, censored GI50 values): 0.195 µM | GI50 (MCF7, MCF7 cell line, censored GI50 values): 0.501 µM | GI50 (MCF7, cell line MCF7): 0.501 µM | GI50 (MDA-MB-134-VI, MDAMB134VI cell line, censored GI50 values): 1.2 µM | GI50 (MDA-MB-157, MDAMB157 cell line, censored GI50 values): 0.398 µM | GI50 (MDA-MB-157, cell line MDAMB157): 0.398 µM | GI50 (MDA-MB-175-VII, MDAMB175VII cell line, censored GI50 values): 0.708 µM | GI50 (MDA-MB-231, MDAMB231 cell line, censored GI50 values): 0.214 µM | GI50 (MDA-MB-231, cell line MDAMB231): 0.214 µM | GI50 (MDA-MB-361, MDAMB361 cell line, censored GI50 values): 0.234 µM | GI50 (MDA-MB-361, cell line MDAMB361): 0.234 µM | GI50 (MDA-MB-415, MDAMB415 cell line, censored GI50 values): 0.372 µM | GI50 (MDA-MB-415, cell line MDAMB415): 0.372 µM | GI50 (MDA-MB-436, MDAMB436 cell line, censored GI50 values): 0.589 µM | GI50 (MDA-MB-436, cell line MDAMB436): 0.589 µM | GI50 (MDA-MB-453, MDAMB453 cell line, censored GI50 values): 0.214 µM | GI50 (MDA-MB-453, cell line MDAMB453): 0.214 µM | GI50 (MDA-MB-468, MDAMB468 cell line, censored GI50 values): 0.741 µM | GI50 (MDA-MB-468, cell line MDAMB468): 0.741 µM | GI50 (SK-BR-3, SKBR3 cell line, censored GI50 values): 0.126 µM | GI50 (SK-BR-3, cell line SKBR3): 0.126 µM | GI50 (SUM52PE, SUM52PE cell line, censored GI50 values): 0.0977 µM | GI50 (SUM52PE, cell line SUM52PE): 0.0977 µM | GI50 (SUM185PE, SUM185PE cell line, censored GI50 values): 0.309 µM | GI50 (SUM185PE, cell line SUM185PE): 0.309 µM | GI50 (SUM1315MO2, SUM1315MO2 cell line, censored GI50 values): 0.214 µM | GI50 (SUM-159-PT, SUM159PT cell line, censored GI50 values): 0.347 µM | GI50 (SUM-159-PT, cell line SUM159PT): 0.347 µM | GI50 (UACC-812, UACC812 cell line, censored GI50 values): 0.0741 µM | GI50 (UACC-812, cell line UACC812): 0.0741 µM | GI50 (UACC-893, UACC893 cell line, censored GI50 values): 0.832 µM | GI50 (UACC-893, cell line UACC893): 0.832 µM | GI50 (ZR-75-1, ZR751 cell line, censored GI50 values): 0.138 µM | GI50 (ZR-75-1, cell line ZR751): 0.138 µM | GI50 (ZR-75-30, ZR7530 cell line, censored GI50 values): 0.11 µM | GI50 (ZR-75-30, cell line ZR7530): 0.11 µM | GI50 (ZR-75B, ZR75B cell line, censored GI50 values): 0.251 µM | GI50 (ZR-75B, cell line ZR75B): 0.251 µM | GI50 (cell line 600MPE): 0.269 µM | GI50 (cell line HCC2185): 0.0692 µM | GI50 (cell line HCC3153): 0.355 µM | GI50 (cell line LY2): 0.195 µM | GI50 (cell line MDAMB134V): 1.2 µM | GI50 (cell line MDAMB175V): 0.708 µM | GI50 (cell line SUM1315MO): 0.214 µM
